# Patent publication EP4273147A1, “SUBSTITUTED SPIROLACTAMS, SALTS THEREOF AND THEIR USE AS HERBICIDALLY ACTIVE SUBSTANCES” (Bayer Aktiengesellschaft, priority 2022, dated 2023)
# Experiments:
# ABUTH [1] = experiment: Herbicidal pre-emergence action (Table A1); format: in vivo, Abutilon theophrasti; conditions: application rate 1280 g/ha; visual grading after ca. 3 weeks vs untreated controls (100% = plants have died off, 0% = as control plants)
# How it was run: (§1)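 Pots: sandy loam. Sowing: one mono- and one dicot weed species together per pot. Seeds covered with soil.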
# ECHCG [2] = experiment: Herbicidal pre-emergence action (Table A2); format: in vivo, Echinochloa crus-galli; conditions: application rate 1280 g/ha; visual grading after ca. 3 weeks
# How it was run: as §1
# LOLRI [3] = experiment: Herbicidal pre-emergence action (Table A3); format: in vivo, Lolium rigidum; conditions: application rate 320 g/ha; visual grading after ca. 3 weeks
# How it was run: as §1
# MATIN [4] = experiment: Herbicidal pre-emergence action (Table A4); format: in vivo, Matricaria inodora; conditions: application rate 1280 g/ha; visual grading after ca. 3 weeks
# How it was run: as §1
# SETVI [5] = experiment: Herbicidal pre-emergence action (Table A5); format: in vivo, Setaria viridis; conditions: application rate 320 g/ha; visual grading after ca. 3 weeks
# How it was run: as §1
# STEME = experiment: Herbicidal pre-emergence action (Table A6); format: in vivo, Stellaria media; conditions: application rate 320 g/ha; visual grading after ca. 3 weeks
# How it was run: as §1
# POAAN [6] = experiment: Herbicidal pre-emergence action (Table A7); format: in vivo, Poa annua; conditions: application rate 320 g/ha; visual grading after ca. 3 weeks
# How it was run: as §1
# AMARE = experiment: Herbicidal pre-emergence action (Table A8); format: in vivo, Amaranthus retroflexus; conditions: application rate 1280 g/ha; visual grading after ca. 3 weeks vs untreated controls (100% = plants have died off, 0% = as control plants)
# Excerpt: Seeds of mono- and dicotyledonous weed plants were sown in plastic pots (double sowings with one species of mono- and one species of dicotyledonous weed plants per pot), in sandy loam, and covered with soil.
# ALOMY [7] = experiment: Herbicidal pre-emergence action (Table A9); format: in vivo, Alopecurus myosuroides; conditions: application rate 1280 g/ha; visual grading after ca. 3 weeks
# How it was run: as §1
# KCHSC = experiment: Herbicidal pre-emergence action (Table A10); format: in vivo, Kochia scoparia; conditions: application rate 320 g/ha; visual grading after ca. 3 weeks
# How it was run: as §1
# VERPE [8] = experiment: Herbicidal pre-emergence action (Table A11); format: in vivo, Veronica persica; conditions: application rate 1280 g/ha; visual grading after ca. 3 weeks
# How it was run: as §1
# DIGSA [9] = experiment: Herbicidal pre-emergence action (Table A12); format: in vivo, Digitaria sanguinalis; conditions: application rate 1280 g/ha; visual grading after ca. 3 weeks
# How it was run: as §1
# ABUTH [10] = experiment: Herbicidal post-emergence action (Table B1); format: in vivo, Abutilon theophrasti; conditions: application rate 1280 g/ha; treated at one-leaf stage; rated visually after about 3 weeks vs untreated controls (100% = plants have died, 0% = like control plants)
# Experimental: Seeds of mono- and dicotyledonous weed plants were placed in plastic pots in sandy loam soil (doubly sown with in each case one species of mono- or dicotyledonous weed plants per pot), covered with soil and cultivated in a greenhouse under controlled growth conditions. 2 to 3 weeks after sowing, the test plants were treated at the one-leaf stage. […] After the test plants had been kept in the greenhouse under optimum growth conditions for about 3 weeks, the activity of the preparations was rated visually in comparison to untreated controls. For example, 100% activity = the plants have died, 0% activity = like control plants.
# ECHCG [11] = experiment: Herbicidal post-emergence action (Table B3); format: in vivo, Echinochloa crus-galli; conditions: application rate 1280 g/ha; rated visually after about 3 weeks
# How it was run: (§2)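 Percent herbicidal activity scored visually versus untreated controls, with 100% meaning dead plants. Scoring took place ~3 weeks after post-emergence treatment of one-leaf-stage weeds grown in sandy loam pots in a greenhouse.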
# POAAN [12] = experiment: Herbicidal post-emergence action (Table B7); format: in vivo, Poa annua; conditions: application rate 1280 g/ha
# How it was run: as §2
# SETVI [13] = experiment: Herbicidal post-emergence action (Table B8); format: in vivo, Setaria viridis; conditions: application rate 1280 g/ha
# How it was run: as §2
# ALOMY [14] = experiment: Herbicidal pre-emergence action, section C (Table C2); format: in vivo, Alopecurus myosuroides; conditions: application rate 320 g/ha; visual grading after ca. 3 weeks
# Excerpt: (§4) Seeds of mono- and dicotyledonous weed plants and crop plants were sown, in plastic or organic planting pots, in sandy loam and covered with soil. The compounds according to the invention, formulated in the form of wettable powders (WP) or as emulsifiable concentrates (EC), were applied to the surface of the covering soil as aqueous suspension or emulsion, with the addition of 0.5% of an additive, at an application rate of 600 1 of water/ha (converted). Following treatment, the pots were placed in a greenhouse and kept under optimum growth conditions for the test plants.
# DIGSA [15] = experiment: Herbicidal pre-emergence action, section C (Table C5); format: in vivo, Digitaria sanguinalis; conditions: application rate 320 g/ha; visual grading after ca. 3 weeks
# ECHCG [16] = experiment: Herbicidal pre-emergence action, section C (Table C6); format: in vivo, Echinochloa crus-galli; conditions: visual grading after ca. 3 weeks
# LOLRI [17] = experiment: Herbicidal pre-emergence action, section C (Table C7); format: in vivo, Lolium rigidum; conditions: application rate 320 g/ha; visual grading after ca. 3 weeks
# MATIN [18] = experiment: Herbicidal pre-emergence action, section C (Table C8); format: in vivo, Matricaria inodora; conditions: application rate 320 g/ha; visual grading after ca. 3 weeks
# POLCO = experiment: Herbicidal pre-emergence action, section C (Table C9); format: in vivo, Polygonum convolvulus; conditions: application rate 320 g/ha; visual grading after ca. 3 weeks
# Excerpt: as §4
# SETVI [19] = experiment: Herbicidal pre-emergence action, section C (Table C10); format: in vivo, Setaria viridis; conditions: application rate 320 g/ha; visual grading after ca. 3 weeks
# VERPE [20] = experiment: Herbicidal pre-emergence action, section C (Table C11); format: in vivo, Veronica persica; conditions: application rate 320 g/ha; visual grading after ca. 3 weeks
# VIOTR [21] = experiment: Herbicidal pre-emergence action, section C (Table C12); format: in vivo, Viola tricolor; conditions: application rate 80 g/ha; visual grading after ca. 3 weeks
# ZEAMX [22] = experiment: Pre-emergence effects on crop plants (Table D1); format: in vivo, Zea mays; conditions: crop plant; application rate 320 g/ha; visual grading after ca. 3 weeks
# TRZAS [23] = experiment: Pre-emergence effects on crop plants (Table D2); format: in vivo, Triticum aestivum; conditions: crop plant; application rate 80 g/ha; visual grading after ca. 3 weeks
# GLXMA = experiment: Pre-emergence effects on crop plants (Table D4); format: in vivo, Glycine max; conditions: crop plant; application rate 80 g/ha; visual grading after ca. 3 weeks
# ECHCG [24] = experiment: Herbicidal post-emergence action, section E (Table E5); format: in vivo, Echinochloa crus-galli; conditions: application rate 320 g/ha; assessed visually after ca. 3 weeks
# Excerpt: (§3) 2 to 3 weeks after sowing, the test plants were sprayed in the single-leaf stage.
# VERPE [25] = experiment: Herbicidal post-emergence action, section E (Table E9); format: in vivo, Veronica persica; conditions: application rate 320 g/ha; assessed visually after ca. 3 weeks
# Excerpt: as §3
# ZEAMX [26] = experiment: Post-emergence effects on crop plants (Table F1); format: in vivo, Zea mays; conditions: crop plant ZEAMX
# Excerpt: as §3
# TRZAS [27] = experiment: Post-emergence effects on crop plants (Table F2); format: in vivo, Triticum aestivum; conditions: application rate 320 g/ha, crop plant TRZAS
# Excerpt: as §3
# ORYZA [28] = experiment: Post-emergence effects on crop plants (Table F3); format: in vivo, Oryza sativa; conditions: application rate 320 g/ha, crop plant ORYZA
# Excerpt: as §3
# BRSNW = experiment: Post-emergence effects on crop plants (Table F5); format: in vivo, Brassica napus; conditions: crop plant BRSNW
# Excerpt: as §3
# ORYZA [29] = experiment: Pre-emergence effects on crop plants (Table D3); conditions: crop plant; application rate 80 g/ha; visual grading after ca. 3 weeks
# Excerpt: Seeds of mono- and dicotyledonous weed plants and crop plants were sown, in plastic or organic planting pots, in sandy loam and covered with soil. The compounds according to the invention, formulated in the form of wettable powders (WP) or as emulsifiable concentrates (EC), were applied to the surface of the covering soil as aqueous suspension or emulsion, with the addition of 0.5% of an additive, at an application rate of 600 1 of water/ha (converted).
# Following treatment, the pots were placed in a greenhouse and kept under optimum growth conditions for the test plants.
# VIOTR [30] = experiment: Herbicidal post-emergence action, section E (Table E10); format: in vivo, Viola tricolor; conditions: application rate 320 g/ha; assessed visually after ca. 3 weeks
# Excerpt: as §3
compound,measurement,setting,value
O=C1N(Cc2cccc(F)c2F)CCCC12CCN(Cc1c(F)cccc1F)C2=O (racemic) [I-032],pre-emergence activity against ABUTH,ABUTH [1],90%
same,pre-emergence activity against ECHCG,ECHCG [2],100%
same,pre-emergence activity against LOLRI,LOLRI [3],100%
same,pre-emergence activity against MATIN,MATIN [4],90%
same,pre-emergence activity against SETVI,SETVI [5],100%
same,pre-emergence activity against STEME,STEME,90%
same,pre-emergence activity against POAAN,POAAN [6],100%
same,pre-emergence activity against AMARE,AMARE,90%
same,pre-emergence activity against ALOMY,ALOMY [7],90%
same,pre-emergence activity against KCHSC,KCHSC,90%
same,pre-emergence activity against VERPE,VERPE [8],90%
same,pre-emergence activity against DIGSA,DIGSA [9],100%
same,post-emergence activity against ABUTH,ABUTH [10],90%
same,post-emergence activity against ECHCG,ECHCG [11],90%
same,post-emergence activity against POAAN,POAAN [12],90%
same,post-emergence activity against SETVI,SETVI [13],90%
same,pre-emergence activity against ALOMY,ALOMY [14],90%
same,pre-emergence activity against DIGSA,DIGSA [15],100%
same,pre-emergence activity against ECHCG,ECHCG [16]; application rate 80 g/ha,100%
same,pre-emergence activity against LOLRI,LOLRI [17],100%
same,pre-emergence activity against MATIN,MATIN [18],80%
same,pre-emergence activity against POLCO,POLCO,80%
same,pre-emergence activity against SETVI,SETVI [19],100%
same,pre-emergence activity against VERPE,VERPE [20],80%
same,pre-emergence activity against VIOTR,VIOTR [21],90%
same,pre-emergence activity against ZEAMX,ZEAMX [22],0%
same,pre-emergence activity against TRZAS,TRZAS [23],0%
same,pre-emergence activity against GLXMA,GLXMA,0%
same,post-emergence activity against ECHCG,ECHCG [24],80%
same,post-emergence activity against VERPE,VERPE [25],90%
same,post-emergence activity against ZEAMX,ZEAMX [26]; application rate 80 g/ha,20%
same,post-emergence activity against TRZAS,TRZAS [27],0%
same,post-emergence activity against ORYZA,ORYZA [28],0%
same,post-emergence activity against BRSNW,BRSNW; application rate 80 g/ha,0%
same,pre-emergence activity against ORYZA,ORYZA [29],0%
"O=C1N(Cc2cc(F)c(F)cc2F)CCCC12CCCN(Cc1cc(F)c(F)cc1F)C2=O (single isomer, unassigned; (+)) [I-215, (+)-2,8-bis(2,4,5-trifluorophenylmethyl)-2,8-diazaspiro[5.5]undecane-1,7-dione]",pre-emergence activity against ALOMY,ALOMY [14],100%
same,pre-emergence activity against DIGSA,DIGSA [15],100%
same,pre-emergence activity against ECHCG,ECHCG [16]; application rate 320 g/ha,100%
same,pre-emergence activity against POLCO,POLCO,80%
same,pre-emergence activity against SETVI,SETVI [19],100%
same,pre-emergence activity against VERPE,VERPE [20],80%
same,pre-emergence activity against VIOTR,VIOTR [21],90%
same,post-emergence activity against ECHCG,ECHCG [24],90%
same,post-emergence activity against VIOTR,VIOTR [30],80%
same,post-emergence activity against ZEAMX,ZEAMX [26]; application rate 320 g/ha,0%
same,post-emergence activity against TRZAS,TRZAS [27],0%
same,post-emergence activity against BRSNW,BRSNW; application rate 320 g/ha,0%
